Test results published in ChEMBL document CHEMBL6182901, “1,5-Disubstituted 1,2,3-triazoles: Molecular scaffolds for medicinal chemistry and biomolecular mimetics” (Eur J Med Chem, 2025).
Converted amounts (≈) assume the structure as drawn. Values belong to the molecule of their own block, whether it stands above or below them. Residues, ends and D or L forms follow the SMILES beside them.

Assays:
[1] = tested on: EMT6; test: Anticancer activity against mouse EMT6 cells assessed as reduction in cell viability incubated for 48 hrs by XTT assay; format: functional, cell-based; settings: EMT6, 48 h
[2] = tested on: SW480; test: Anticancer activity against human SW480 cells assessed as reduction in cell viability incubated for 48 hrs by XTT assay; format: functional, cell-based; settings: SW480, 48 h
[3] = target: D-amino-acid oxidase (Homo sapiens, UniProt P14920); test: Binding affinity to human DAO assessed as inhibition constant
[4] = Inhibition of bovine pancrease trypsin by microplate reader analysis; set-up: species or system Bos taurus
[5] = tested on: HeLa; test: Cytostatic activity against human HeLa cells measured for 72 hrs; format: functional; settings: read-out: ED50 (the source's name)
[6] = target: C-X-C chemokine receptor type 4 (Homo sapiens, UniProt P61073); test: Displacement of 125I-CXCL12 from CXCR4 in human CCRF-CEM cells by competitive binding assay; format: cell-based
[7] = Binding affinity to c-Src (unknown origin) assessed as inhibition constant by fluorescence based assay; set-up: species or system Homo sapiens
[8] = Binding affinity to c-Abl (unknown origin) assessed as inhibition constant by fluorescence based assay; set-up: species or system Homo sapiens
[9] = tested on: A549; test: Cytotoxicity against human A549 cells assessed as reduction in cell viability incubated for 24 hrs by MTT assay; format: functional, cell-based; settings: A549, 24 h
[10] = tested on: HepG2; test: Cytotoxicity against human HepG2 cells assessed as reduction in cell viability incubated for 24 hrs by MTT assay; format: functional, cell-based; settings: HepG2, 24 h
[11] = tested on: MDA-MB-231; test: Cytotoxicity against human MDA-MB-231 cells assessed as reduction in cell viability incubated for 24 hrs by MTT assay; format: functional, cell-based; settings: MDA-MB-231, 24 h
[12] = tested on: Staphylococcus aureus; test: Antibacterial activity against Staphylococcus aureus assessed as reduction in microbial growth by CLSI based broth microdilution method; format: functional
[13] = tested on: Escherichia coli; test: Antibacterial activity against Escherichia coli assessed as reduction in microbial growth by CLSI based broth microdilution method; format: functional
[14] = target: Acetylcholine-binding protein (Lymnaea stagnalis, UniProt P58154); test: Binding affinity to Lymnaea stagnalis Acetylcholine-binding protein assessed as dissociation constant
[15] = Binding affinity to Aplysia californica Acetylcholine-binding protein assessed as dissociation constant
[16] = Binding affinity to Aplysia californica Y55W Acetylcholine-binding protein assessed as dissociation constant
[17] = target: Human immunodeficiency virus type 1 reverse transcriptase (Human immunodeficiency virus 1, UniProt Q72547); test: Binding affinity to HIV-1 reverse transcriptase assessed as dissociation constant
[18] = Inhibition of bovine pancrease trypsin-catalyzed proteolysis of chromogenic substrate Boc-QAR-pNA; set-up: species or system Bos taurus
[19] = tested on: EMT6; test: Anticancer activity against mouse EMT6 cells assessed as reduction in cell viability at 100 uM incubated for 48 hrs by XTT assay relative to control; format: functional
[20] = target: Histone deacetylase; test: Inhibition of HDAC extracted from human HeLa cell nuclear extract by fluorescence assay; format: subcellular, Nucleus

C-X-C chemokine receptor type 4, sequence (P61073 whole entry): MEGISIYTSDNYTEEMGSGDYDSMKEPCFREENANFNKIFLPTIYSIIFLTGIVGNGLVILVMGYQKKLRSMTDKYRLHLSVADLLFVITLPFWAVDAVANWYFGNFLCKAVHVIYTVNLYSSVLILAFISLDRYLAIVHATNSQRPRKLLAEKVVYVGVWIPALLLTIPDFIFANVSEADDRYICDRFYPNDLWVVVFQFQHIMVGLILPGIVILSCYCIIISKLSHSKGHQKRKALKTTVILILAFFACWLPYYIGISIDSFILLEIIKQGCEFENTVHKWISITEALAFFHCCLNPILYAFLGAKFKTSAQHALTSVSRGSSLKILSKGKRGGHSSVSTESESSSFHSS
Acetylcholine-binding protein, sequence (P58154 whole entry): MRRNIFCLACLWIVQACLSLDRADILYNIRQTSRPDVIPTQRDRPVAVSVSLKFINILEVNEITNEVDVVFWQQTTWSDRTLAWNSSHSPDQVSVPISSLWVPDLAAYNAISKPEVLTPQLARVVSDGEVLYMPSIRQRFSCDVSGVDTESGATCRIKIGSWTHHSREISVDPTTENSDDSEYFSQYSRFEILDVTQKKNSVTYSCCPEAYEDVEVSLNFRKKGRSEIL
D-amino-acid oxidase, sequence (P14920 whole entry): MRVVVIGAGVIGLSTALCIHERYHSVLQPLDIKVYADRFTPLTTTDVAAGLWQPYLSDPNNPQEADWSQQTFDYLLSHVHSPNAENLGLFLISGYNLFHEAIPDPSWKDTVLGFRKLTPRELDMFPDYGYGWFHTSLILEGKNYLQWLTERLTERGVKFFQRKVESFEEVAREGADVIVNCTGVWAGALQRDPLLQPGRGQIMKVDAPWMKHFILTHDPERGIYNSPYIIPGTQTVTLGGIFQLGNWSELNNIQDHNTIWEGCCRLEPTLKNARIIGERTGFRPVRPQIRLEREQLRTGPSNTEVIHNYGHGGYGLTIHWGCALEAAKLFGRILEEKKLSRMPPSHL

Structure (SMILES): CC1(C)CC[C@]2(C(=O)OCc3cn(-c4ccc(Cl)cc4)nn3)CC[C@]3(C)C(=CC[C@@H]4[C@@]5(C)CC[C@H](O)C(C)(C)[C@@H]5CC[C@]43C)[C@@H]2C1
IC50 [1]: 91.8 µM
IC50 [2]: 76 µM

Structure (SMILES): Cc1cccc(-n2nncc2COC(=O)[C@]23CCC(C)(C)C[C@H]2C2=CC[C@@H]4[C@@]5(C)CC[C@H](O)C(C)(C)[C@@H]5CC[C@@]4(C)[C@]2(C)CC3)c1
IC50 [1]: 60 µM

Structure (SMILES): CC(=O)OC[C@H]1O[C@@H](n2nncc2CBr)[C@H](OC(C)=O)[C@@H](OC(C)=O)[C@@H]1OC(C)=O
EC50 [5]: 4 µg/mL (≈ 8.13 µM)

Structure (SMILES): CC(=O)OC[C@H]1O[C@@H](n2cc(CI)nn2)[C@H](OC(C)=O)[C@@H](OC(C)=O)[C@@H]1OC(C)=O
EC50 [5]: 2 µg/mL (≈ 3.71 µM)

Structure (SMILES): NC(=O)[C@@H]1C[C@H]2CCc3cnnn3CCOc3cccc(c3)C(=O)N1C2
IC50 [9]: 41.3 µM
IC50 [10]: 34.7 µM
IC50 [11]: 28 µM

Structure (SMILES): CC[C@H]1COC(=O)C[C@@H](O)[C@H](C)[C@@H](O[C@@H]2OC[C@@H](O)[C@H](N(C)C)[C@H]2O)[C@@H](CN(Cc2ccccc2)Cc2cnnn2-c2cnc3ccccc3c2)C[C@@H](C)C(=O)/C=C/C(C)=C/[C@@H]1CO
MIC [12]: 4 µg/mL
MIC [13]: 464 µg/mL

Structure (SMILES): O=C(O)[C@@H]1C[C@H]2CCc3cnnn3CCOc3cccc(c3)C(=O)N1C2
IC50 [9]: 37.1 µM
IC50 [10]: 44.9 µM
IC50 [11]: 34.3 µM

Structure (SMILES): CC[C@H](C)[C@@H]1NC(=O)[C@@H]2CCCN2C(=O)[C@@H]2CCCN2C(=O)[C@H]([C@@H](C)CC)NC(=O)[C@H](CO)NC(=O)[C@H](CCCCN)NC(=O)[C@@H]([C@H](C)O)NC(=O)[C@@H](NC(=O)[C@H](CCCNC(=N)N)NC(=O)CN)CSSC[C@@H](C(=O)N[C@@H](Cc2ccccc2)C(=O)N2CCC[C@H]2C(=O)N[C@@H](CC(=O)O)C(=O)O)NC1=O
Ki [18]: 0.00148 µM

Structure (SMILES): CC1(C)CC[C@]2(C(=O)OCc3cn(-c4ccc(Br)cc4)nn3)CC[C@]3(C)C(=CC[C@@H]4[C@@]5(C)CC[C@H](O)C(C)(C)[C@@H]5CC[C@]43C)[C@@H]2C1
IC50 [1]: 91.8 µM
IC50 [2]: 29.6 µM

Structure (SMILES): O=C(Nc1ccccc1)[C@@H]1C[C@H]2CCc3cnnn3CCOc3cccc(c3)C(=O)N1C2
IC50 [9]: 46.3 µM
IC50 [10]: 36.3 µM
IC50 [11]: 43.7 µM

Structure (SMILES): CC(C)CNC(=O)[C@@H]1C[C@H]2CCc3cnnn3CCOc3cccc(c3)C(=O)N1C2
IC50 [9]: 32.2 µM
IC50 [10]: 37.3 µM
IC50 [11]: 43.2 µM

Structure (SMILES): CC(=O)OC[C@H]1O[C@@H](n2cc(CBr)nn2)[C@H](OC(C)=O)[C@@H](OC(C)=O)[C@@H]1OC(C)=O
EC50 [5]: 3.5 µg/mL (≈ 7.11 µM)

Structure (SMILES): CC1(C)CC[C@]2(C(=O)OCc3cnnn3-c3ccc([N+](=O)[O-])cc3)CC[C@]3(C)C(=CC[C@@H]4[C@@]5(C)CC[C@H](O)C(C)(C)[C@@H]5CC[C@]43C)[C@@H]2C1
IC50 [1]: 74 µM
Activity [19]: 74%

Second part, the molecule after the results:

Ki [3]: 0.001 µM
Structure (SMILES): [N-]=[N+]=NCC(=O)N[C@@H](Cc1ccccc1)C(=O)O

Ki [4]: 0.178 µM
Structure (SMILES): CC[C@H](C)[C@@H]1NC(=O)[C@H](CO)NC(=O)[C@H](CCCCN)NC(=O)[C@H]([C@@H](C)O)NC(=O)[C@@H](NC(=O)[C@H](CCCNC(=N)N)NC(=O)CN)CSSC[C@@H](C(=O)N[C@@H](Cc2ccccc2)C(=O)N2CCC[C@H]2C(=O)N[C@@H](CC(=O)O)C(=O)O)NC(=O)[C@H]([C@@H](C)CC)NC(=O)[C@@H]2CCCN2C(=O)[C@H](C)NC1=O (HELM PEPTIDE1{G.R.C.T.K.S.I.A.P.I.C.F.P.D}$PEPTIDE1,PEPTIDE1,3:R3-11:R3$$$V2.0)

Ki [3]: 0.4 µM
Structure (SMILES): O=C(Cn1nncc1CO/N=C(/Cc1ccc(O)cc1)C(=O)O)N[C@@H](Cc1ccccc1)C(=O)O

IC50 [6]: 0.018 µM
Structure (SMILES): CC(=O)N[C@@H](CCCNC(=N)N)C(=O)N[C@@H](C)C(=O)N[C@H]1CCn2cc(nn2)C[C@@H](C(=O)O)NC(=O)[C@H](Cc2c[nH]cn2)NC(=O)[C@H](Cc2ccc3ccccc3c2)NC(=O)[C@H](CCCNC(=N)N)NC(=O)C1

Ki [7]: 0.044 µM
Ki [8]: > 125 µM
Structure (SMILES): Nc1ncnc2c1c(-c1ccc(Cl)cc1)nn2-c1cccc(-c2cnnn2Cc2cccc(-c3ccccc3)c2)c1

Ki [7]: 0.207 µM
Ki [8]: > 125 µM
Structure (SMILES): Nc1ncnc2c1c(-c1ccc(Cl)cc1)nn2-c1cccc(-c2cnnn2Cc2ccccc2)c1

Kd [14]: 0.00096 µM
Kd [15]: 0.024 µM
Kd [16]: 0.017 µM
Structure (SMILES): Cn1c(=O)cc(OCc2cn(C3CC4CC3[N+]4(C)C)nn2)c2ccccc21 (stereo unspecified)

IC50 [6]: 0.022 µM
Structure (SMILES): CC(=O)N[C@@H](CCCNC(=N)N)C(=O)N[C@@H](C)C(=O)N[C@H]1CCn2nncc2C[C@@H](C(=O)O)NC(=O)[C@H](Cc2c[nH]cn2)NC(=O)[C@H](Cc2ccc3ccccc3c2)NC(=O)[C@H](CCCNC(=N)N)NC(=O)C1

Kd [17]: 3.3 µM
Structure (SMILES): N[C@H]1C[C@@H](N)[C@H](OCc2cnnn2CC(=O)c2ccc(-c3ccccc3)cc2)C1

Kd [14]: 0.00164 µM
Kd [15]: 0.331 µM
Kd [16]: 0.0981 µM
Structure (SMILES): Cn1c(=O)cc(OCc2cnnn2C2C[C@@H]3C[C@H]2[N+]3(C)C)c2ccccc21 (stereo partly specified)

Ki [4]: 0.255 µM
Structure (SMILES): CC[C@H](C)[C@@H]1NC(=O)[C@H](C)n2nncc2[C@@H]2CCCN2C(=O)[C@H]([C@@H](C)CC)NC(=O)[C@H](CO)NC(=O)[C@H](CCCCN)NC(=O)[C@H]([C@@H](C)O)NC(=O)[C@@H](NC(=O)[C@H](CCCNC(=N)N)NC(=O)CN)CSSC[C@@H](C(=O)N[C@@H](Cc2ccccc2)C(=O)N2CCC[C@H]2C(=O)N[C@@H](CC(=O)O)C(=O)O)NC1=O (HELM PEPTIDE1{G.R.C.T.K.S.I.[C[C@@H](C(=O)[*:2])n1nncc1[C@@H]1CCCN1[*:1]].I.C.F.P.D}$PEPTIDE1,PEPTIDE1,3:R3-10:R3$$$V2.0)

Ki [7]: 1.45 µM
Ki [8]: 7.15 µM
Structure (SMILES): C#Cc1cccc(-n2nc(-c3ccc(Cl)cc3)c3c(N)ncnc32)c1

Ki [18]: 1.91 µM
Structure (SMILES): CC[C@H](C)[C@@H]1NC(=O)[C@H](CO)NC(=O)[C@@H](CCCCN)NC(=O)[C@@H]([C@H](C)O)NC(=O)[C@@H](NC(=O)[C@H](CCCNC(=N)N)NC(=O)CN)CCn2cc(nn2)C[C@@H](C(=O)N[C@@H](Cc2ccccc2)C(=O)N2CCC[C@H]2C(=O)N[C@@H](CC(=O)O)C(=O)O)NC(=O)[C@@H]([C@@H](C)CC)NC(=O)[C@@H]2CCCN2C(=O)[C@@H]2CCCN2C1=O

Ki [4]: 0.0032 µM
Structure (SMILES): CC[C@H](C)[C@@H]1NC(=O)[C@H](C)NC(=O)[C@@H]2CCCN2C(=O)[C@H]([C@@H](C)CC)NC(=O)[C@H](CO)NC(=O)[C@H](CCCCN)NC(=O)[C@H]([C@@H](C)O)NC(=O)[C@@H](NC(=O)[C@H](CCCNC(=N)N)NC(=O)CN)CSSC[C@@H](C(=O)N[C@@H](Cc2ccccc2)C(=O)N2CCC[C@H]2C(=O)N[C@@H](CC(=O)O)C(=O)O)NC1=O (HELM PEPTIDE1{G.R.C.T.K.S.I.P.A.I.C.F.P.D}$PEPTIDE1,PEPTIDE1,3:R3-11:R3$$$V2.0)

Ki [4]: 0.034 µM
Structure (SMILES): CC[C@H](C)[C@@H]1NC(=O)[C@@H]2CCCN2C(=O)[C@H](C)n2nncc2[C@H]([C@@H](C)CC)NC(=O)[C@H](CO)NC(=O)CNC(=O)[C@H]([C@@H](C)O)NC(=O)[C@@H](NC(=O)[C@H](CCCNC(=N)N)NC(=O)CN)CSSC[C@@H](C(=O)N[C@@H](Cc2ccccc2)C(=O)N2CCC[C@H]2C(=O)N[C@@H](CC(=O)O)C(=O)O)NC1=O (HELM PEPTIDE1{G.R.C.T.G.S.[CC[C@H](C)[C@H](N[*:1])c1cnnn1[C@@H](C)C(=O)[*:2]].P.I.C.F.P.D}$PEPTIDE1,PEPTIDE1,3:R3-10:R3$$$V2.0)

Ki [18]: 0.0024 µM
Structure (SMILES): CC[C@H](C)[C@@H]1NC(=O)[C@@H]2CCCN2C(=O)[C@@H]2CCCN2C(=O)[C@H]([C@@H](C)CC)NC(=O)[C@H](CO)NC(=O)[C@H](CCCCN)NC(=O)[C@@H]([C@H](C)O)NC(=O)[C@@H](NC(=O)[C@H](CCCNC(=N)N)NC(=O)CN)CCn2nncc2C[C@@H](C(=O)N[C@@H](Cc2ccccc2)C(=O)N2CCC[C@H]2C(=O)N[C@@H](CC(=O)O)C(=O)O)NC1=O

Kd [17]: 3.7 µM
Structure (SMILES): N[C@H]1C[C@@H](N)[C@H](OCc2cnnn2CC(=O)c2ccc(-c3ccccn3)s2)C1

Kd [17]: 1.9 µM
Structure (SMILES): N[C@H]1C[C@@H](N)[C@H](OCc2cnnn2CC(=O)c2ccc3ccccc3c2)C1

IC50 [20]: < 0.1 µM
Structure (SMILES): CCC(=O)CCCCC[C@@H]1NC(=O)[C@@H](C(C)(C)C)n2cc(nn2)[C@H]([C@@H](C)CC)NC(=O)[C@H](Cc2c[nH]c3ccccc23)NC1=O
